This passage reports IC50 and TEC/Btk results from US20180194762A1 (Pharmacyclics LLC, priority 2017, published 2018).

What all share (format): biochemical
The target in assay [1] is T1, TEC (Homo sapiens, UniProt P42680).
T1 sequence (P42680 1-631): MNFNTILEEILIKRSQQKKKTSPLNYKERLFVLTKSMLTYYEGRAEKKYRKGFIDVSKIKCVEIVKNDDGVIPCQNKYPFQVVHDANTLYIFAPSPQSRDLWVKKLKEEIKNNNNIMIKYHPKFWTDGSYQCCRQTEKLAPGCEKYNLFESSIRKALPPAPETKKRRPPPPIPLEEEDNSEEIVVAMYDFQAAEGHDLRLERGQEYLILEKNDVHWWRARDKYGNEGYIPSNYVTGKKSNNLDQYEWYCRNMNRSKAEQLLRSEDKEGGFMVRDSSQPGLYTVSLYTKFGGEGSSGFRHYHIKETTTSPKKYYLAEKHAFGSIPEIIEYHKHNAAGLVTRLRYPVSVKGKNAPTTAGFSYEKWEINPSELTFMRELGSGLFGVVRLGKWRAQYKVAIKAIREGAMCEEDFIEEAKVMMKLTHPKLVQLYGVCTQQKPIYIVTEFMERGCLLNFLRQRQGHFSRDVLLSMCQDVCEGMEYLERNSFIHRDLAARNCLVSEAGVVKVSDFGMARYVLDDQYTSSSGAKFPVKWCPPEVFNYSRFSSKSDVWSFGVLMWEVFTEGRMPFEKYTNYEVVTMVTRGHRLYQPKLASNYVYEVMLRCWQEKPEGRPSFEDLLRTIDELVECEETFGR
The assay is described as follows: Inhibition of a panel of kinases (in vitro HotSpot kinase assay, 33P-ATP, 1 μM ATP). The following applies: for IC50: HotSpot kinase assay, 1 μM ATP; for TEC/Btk: ratio of TEC IC50 to Btk IC50 (selectivity). Summed up: (§1)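 Degree of kinase inhibition is determined in vitro using isolated enzymes, a matched substrate and radiolabelled ATP (1 μM).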

For assay [2], the target named is T2, Btk (Homo sapiens, UniProt Q06187).
T2 construct: purified from insect cells as a full-length construct containing a N-terminal 6X-His tag; His6 (N); made in house; host or cells: insect cells (Method C)
T2 sequence (Q06187 whole entry): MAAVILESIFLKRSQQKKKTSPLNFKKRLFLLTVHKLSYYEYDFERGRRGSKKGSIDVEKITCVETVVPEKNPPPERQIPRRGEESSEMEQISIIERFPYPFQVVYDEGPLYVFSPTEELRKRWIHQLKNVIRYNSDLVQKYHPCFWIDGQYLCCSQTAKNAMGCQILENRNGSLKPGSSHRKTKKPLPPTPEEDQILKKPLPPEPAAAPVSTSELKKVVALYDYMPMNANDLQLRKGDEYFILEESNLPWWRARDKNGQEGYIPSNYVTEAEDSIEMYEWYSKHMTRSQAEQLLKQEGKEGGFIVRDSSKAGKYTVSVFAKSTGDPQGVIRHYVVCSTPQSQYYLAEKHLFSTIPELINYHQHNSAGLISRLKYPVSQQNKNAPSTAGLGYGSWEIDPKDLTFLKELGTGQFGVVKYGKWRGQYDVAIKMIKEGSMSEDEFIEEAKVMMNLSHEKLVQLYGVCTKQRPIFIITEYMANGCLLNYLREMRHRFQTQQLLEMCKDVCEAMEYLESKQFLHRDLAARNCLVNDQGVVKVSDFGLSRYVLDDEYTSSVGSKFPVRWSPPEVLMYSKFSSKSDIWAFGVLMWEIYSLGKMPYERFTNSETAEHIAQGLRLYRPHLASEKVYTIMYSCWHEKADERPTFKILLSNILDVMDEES
The assay is described as follows: Btk in vitro inhibitory activity (one of Method A TR-FRET, Method B electrophoretic mobility shift, Method C radiometric filter binding). The note with it: wild-type Btk; read-out: Btk-WT IC50. Summed up:
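Method A: TR-FRET with 0.5 nM Btk at [ATP]=Km, EDTA-quenched, 665/615 nm ratio; Ki(app) converted to IC50. Method B: 1 nM full-length His6 human BTK, 1 μM FAM peptide, pH 7.5, mobility-shift product/sum ratio, 12-point 4-parameter fit. Method C: radiometric filter binding, 8 nM His-tagged BTK, 0.2 mg/mL poly-Glu-Tyr.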
In general terms: Mobility shift assays separate free from complexed probe on a gel.

The target of assay [3] is T3, panel of kinases (Homo sapiens, UniProt P51813).
T3 sequence (P51813 1-675): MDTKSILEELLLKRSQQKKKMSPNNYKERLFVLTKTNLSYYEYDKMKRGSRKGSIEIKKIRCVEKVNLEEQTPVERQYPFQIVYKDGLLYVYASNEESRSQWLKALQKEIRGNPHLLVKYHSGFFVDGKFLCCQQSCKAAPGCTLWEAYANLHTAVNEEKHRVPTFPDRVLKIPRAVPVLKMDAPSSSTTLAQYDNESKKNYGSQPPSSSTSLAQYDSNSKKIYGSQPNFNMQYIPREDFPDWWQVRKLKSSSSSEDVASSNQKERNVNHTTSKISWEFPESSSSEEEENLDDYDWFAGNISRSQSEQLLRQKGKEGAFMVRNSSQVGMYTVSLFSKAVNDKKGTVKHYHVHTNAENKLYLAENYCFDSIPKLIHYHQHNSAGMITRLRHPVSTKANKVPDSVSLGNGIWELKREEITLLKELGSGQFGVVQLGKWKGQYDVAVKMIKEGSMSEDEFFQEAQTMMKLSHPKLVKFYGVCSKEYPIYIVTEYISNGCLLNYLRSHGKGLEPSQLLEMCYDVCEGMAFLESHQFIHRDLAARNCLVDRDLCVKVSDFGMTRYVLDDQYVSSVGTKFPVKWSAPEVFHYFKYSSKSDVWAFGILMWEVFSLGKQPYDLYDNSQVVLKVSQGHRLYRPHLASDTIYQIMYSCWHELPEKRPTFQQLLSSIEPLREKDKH
In words: Inhibition of a panel of kinases (in vitro HotSpot kinase assay, 33P-ATP, 1 μM ATP), other kinases. The note with it: BMX wild-type, read-out: BMX-WT IC50. Summed up: as §1

Molecules are shown by their SMILES.

Usually IC50 stands for the point on the concentration scale where inhibition reaches its midpoint.

Regarding `CC1(C(=O)N2CC[C@H](Nc3n[nH]c4nccc(-c5ccc(CNC(=O)c6noc(C(C)(C)C)n6)c(F)c5)c34)C2)COC1` [Example 94, 5-tert-butyl-N-{[2-fluoro-4-(3-{[(3S)-1-(3-methyloxetane-3-carbonyl)pyrrolidin-3-yl]amino}-1H-pyrazolo[3,4-b]pyridin-4-yl)phenyl]methyl}-1,2,4-oxadiazole-3-carboxamide], the 50% inhibitory concentration (IC50) in assay [1] was greater than 10000 nM; in assay [2], 25.3 nM; in assay [3] it was greater than 10000 nM. For the same molecule, the TEC/Btk in assay [1] is listed as greater than 100.

Turning to `CN(C)C(=O)N1CC[C@@H](Nc2n[nH]c3nccc(-c4ccc(C5(NC(=O)c6nc(C(C)(C)C)no6)CC5)cc4)c23)C1` [Example 117, 3-tert-butyl-N-{1-[4-(3-{[(3R)-1-(dimethylcarbamoyl)pyrrolidin-3-yl]amino}-1H-pyrazolo[3,4-b]pyridin-4-yl)phenyl]cyclopropyl}-1,2,4-oxadiazole-5-carboxamide], the IC50 is greater than 10000 nM in assay [1], 46.2 nM in assay [2] and 5960 nM in assay [3]. The TEC/Btk in assay [1] is listed as greater than 100.

Turning to `Cc1ccc(C(=O)NCc2ccc(-c3ccnc4[nH]nc(N[C@@H]5CCNC5)c34)cc2F)cc1` [Compound 32, (R)—N-(2-fluoro-4-(3-(pyrrolidin-3-ylamino)-1H-pyrazolo[3,4-b]pyridin-4-yl)benzyl)-4-methylbenzamide], the results for the IC50 in assay [1], in assay [2] and in assay [3] were 5440 nM, 328 nM and 1410 nM, respectively. In addition, the TEC/Btk in assay [1] came out at 17.

Regarding `CC(C)(C)c1nc(C(=O)NCc2ccc(-c3ccnc4[nH]nc(NC5CCCC5)c34)cc2F)no1` [Example 257, 5-tert-butyl-N-({4-[3-(cyclopentylamino)-1H-pyrazolo[3,4-b]pyridin-4-yl]-2-fluorophenyl}methyl)-1,2,4-oxadiazole-3-carboxamide], the values for the IC50 in assay [1], in assay [2] and in assay [3] were 5070 nM, 10.1 nM and 3960 nM, respectively. Besides, the TEC/Btk in assay [1] is 502.

Turning to `C[C@@H](NC(=O)c1cc(C(C)(C)O)on1)c1ccc(-c2ccnc3[nH]nc(N[C@@H]4CC[C@H](C)N(C(=O)N(C)C)C4)c23)cc1F` [Example 192, (2S,5R)-5-[(4-{3-fluoro-4-[(1R)-1-{[5-(2-hydroxypropan-2-yl)-1,2-oxazole-3-carbonyl]amino}ethyl]phenyl}-1H-pyrazolo[3,4-b]pyridin-3-yl)amino]-N,N,2-trimethylpiperidine-1-carboxamide], the IC50 worked out at 3010 nM in assay [1], 28.6 nM in assay [2] and 3130 nM in assay [3]. In addition, the TEC/Btk in assay [1] was found to be 105.

As to `C[C@H]1CC[C@@H](Nc2n[nH]c3nccc(-c4ccc(CNC(=O)c5nc6c(s5)CCCC6)c(F)c4)c23)CN1C(=O)N(C)C` [Example 415, N-{[4-(3-{[(3R,6S)-1-(dimethylcarbamoyl)-6-methylpiperidin-3-yl]amino}-1H-pyrazolo[3,4-b]pyridin-4-yl)-2-fluorophenyl]methyl}-4,5,6,7-tetrahydro-1,3-benzothiazole-2-carboxamide], the figures for the IC50 in assay [1], in assay [2] and in assay [3] were 2150 nM, 28.1 nM and 3000 nM, respectively.

For the molecule `CN(C)C(=O)N1CC[C@@H](Oc2n[nH]c3nccc(-c4ccc(CNC(=O)c5noc(C(C)(C)C)n5)c(F)c4)c23)C1` [Example 282, 5-tert-butyl-N-{[4-(3-{[(3R)-1-(dimethylcarbamoyl)pyrroli-din-3-yl]oxy}-1H-pyrazolo[3,4-b]pyridin-4-yl)-2-fluorophenyl]methyl}-1,2,4-oxadiazole-3-carboxamide], the 50% inhibitory concentration (IC50) in assay [1] was 5240 nM; in assay [2], 10.4 nM; in assay [3] it was 6080 nM. For the same molecule, the TEC/Btk in assay [1] is 504.

For the molecule `CC(C)(C)c1noc(C(=O)NCc2ccc(-c3ccnc4[nH]nc(N5CCC(NC(=O)c6ccccc6)CC5)c34)cc2F)n1` [Example 208, N-({4-[3-(4-benzamidopiperidin-1-yl)-1H-pyrazolo[3,4-b]pyridin-4-yl]-2-fluorophenyl}methyl)-3-tert-butyl-1,2,4-oxadiazole-5-carboxamide], the IC50 worked out at 1710 nM in assay [1], 0.658 nM in assay [2] and 2090 nM in assay [3]. Further, in assay [1], the TEC/Btk was determined as 2599.

In the case of `C[C@@H](NC(=O)c1cc(C(C)(C)O)on1)c1ccc(-c2ccnc3[nH]nc(N4CCS(=O)(=O)CC4)c23)cc1` [Example 406, N-[(1R)-1-{4-[3-(1,1-dioxo-1λ^6-thiomorpholin-4-yl)-1H-pyrazolo[3,4-b]pyridin-4-yl]phenyl}ethyl]-5-(2-hydroxypropan-2-yl)-1,2-oxazole-3-carboxamide], the values for the 50% inhibitory concentration (IC50) in assay [1], in assay [2] and in assay [3] were 4740 nM, 92.9 nM and 5320 nM, respectively.

Take `C=CC(=O)N1CC[C@@H](Nc2n[nH]c3nccc(-c4ccc(CNC(=O)c5cc(C(C)(C)O)on5)c(F)c4)c23)C1` [Example 294, N-{[2-fluoro-4-(3-{[(3R)-1-(prop-2-enoyl)pyrrolidin-3-yl]amino}-1H-pyrazolo[3,4-b]pyridin-4-yl)phenyl]methyl}-5-(2-hydroxypropan-2-yl)-1,2-oxazole-3-carboxamide]: the IC50 came out at 118 nM in assay [1], 1.45 nM in assay [2] and 90 nM in assay [3].

Take `C=CC(=O)N1CC[C@@H](Nc2n[nH]c3nccc(-c4ccc(CNC(=O)c5noc(C(C)(C)C)n5)c(F)c4)c23)C1` [Compound 3, (R)—N-(4-(3-((1-acryloylpyrrolidin-3-yl)amino)-1H-pyrazolo[3,4-b]pyridin-4-yl)-2-fluorobenzyl)-5-(tert-butyl)-1,2,4-oxadiazole-3-carboxamide]: the values for the IC50 in assay [1], in assay [2] and in assay [3] were 20 nM, 0.205 nM and 39 nM, respectively. The TEC/Btk in assay [1] stood at 98.

In the case of `C=CC(=O)N1CC[C@@H](Nc2n[nH]c3nccc(-c4ccc(CNC(=O)c5ccc6c(c5)OCCCO6)c(F)c4)c23)C1` [Example 351, (R)-N-{[2-fluoro-4-(3-{[1-(prop-2-enoyl)pyrrolidin-3-yl]amino}-1H-pyrazolo[3,4-b]pyridin-4-yl)phenyl]methyl}-3,4-dihydro-2H-1,5-benzodioxepine-7-carboxamide], the IC50 in assay [1] is 340 nM; in assay [2] it was 4.43 nM; in assay [3], 95.7 nM.

Consider `C=CC(=O)N1CC[C@@H](Nc2n[nH]c3nccc(-c4ccc(CNC(=O)c5cccc(C(C)(C)C)c5)c(F)c4)c23)C1` [Compound 46, (R)—N-(4-(3-((1-acryloylpyrrolidin-3-yl)amino)-1H-pyrazolo[3,4-b]pyridin-4-yl)-2-fluorobenzyl)-3-(tert-butyl)benzamide], for which the figures for the IC50 in assay [1], in assay [2] and in assay [3] were 182 nM, 8.55 nM and 91 nM, respectively. In assay [1], the TEC/Btk came to 21.

In the case of `C=CC(=O)N(C)[C@@H]1CCN(c2n[nH]c3nccc(-c4ccc(CNC(=O)c5nc(C(C)(C)C)no5)c(F)c4)c23)C1` [Example 347, 3-tert-butyl-N-{[2-fluoro-4-(3-{(3R)-3-[methyl(prop-2-enoyl)amino]pyrrolidin-1-yl}-1H-pyrazolo[3,4-b]pyridin-4-yl)phenyl]methyl}-1,2,4-oxadiazole-5-carboxamide], the IC50 was 9.02 nM in assay [1], 0.0423 nM in assay [2] and 15.8 nM in assay [3].
